“And” between values parts separate entries of the source, which are not always exact repeats. Identical values can stand only once. Like-named read-outs stand apart in the source and are kept apart here.
How the values were obtained:
[1] = tested on: phosphorylation of AKT, mTOR, p70S6K and ULK1; assay: Western blot of AKT/mTOR/ULK1 signaling pathway in BV2 cells; format: cell-based; details: 20, 10, 5 μmol/L, 24 h
[2] = tested on: Aβ1−40 and Aβ1−42; assay: Aβ clearance ELISA assay in BV2 cell; format: cell-based; details: 5, 10 and 20 μmol/L, 24 h, then 2 μg/mL soluble Aβ for 3 h
[3] = tested on: BV2 cells; assay: Cell viability assay, BV2 cells; format: cell-based; details: 24 h; for Cytotoxicity on BV2 cells: 2, 5, 10, 20, 40 μmol/L; for Cell viability of BV2 cells at high concentration: 80, 160 μmol/L
[4] = tested on: SH-SY5Y cells; assay: Cell viability assay; format: cell-based; details: 24 h
[5] = tested on: APP/PS1 transgenic AD model mice; assay: Morris Water Maze assay in APP/PS1 transgenic mice; format: in vivo; details: 100 days, compared with TV group
[6] = tested on: phosphorylation of tau protein; assay: Tau phosphorylation Western blot in SH-SY5Y cell; format: cell-based; details: 5, 10 and 20 μmol/L, 24 h
[7] = from PAMPA–BBB Pe
[8] = in vitro; details: PAMPA
[9] = biological target: hERG potassium channels (Homo sapiens, UniProt Q12809); assay: hERG inhibition patch clamp assay
[10] = tested on: phosphorylation of p70S6K; assay: Inhibition of p70S6K phosphorylation, α-screen assay in SH-SY5Y cell; format: cell-based; details: mean ± SD (n ≥ 3)
[11] = tested on: APP/PS1 transgenic AD model mice; assay: Nesting test in APP/PS1 transgenic mice; format: in vivo; details: 30 mg/kg orally, 100 days, compared with TV group
[12] = tested on: Aβ40/42; assay: Aβ40/42 level in brain of APP/PS1 transgenic mice, ELISA; format: in vivo; details: oral, 100 days, compared with TV group
[13] = tested on: LC3 II, Beclin 1 and p62; assay: Western blot of autophagy marker proteins in BV2 cells; format: cell-based; details: 24 h
[14] = tested on: p70S6K and tau phosphorylation; format: in vivo; details: APP/PS1 transgenic mice
[15] = tested on: autophagy in BV2 cells; assay: Autophagic flux assay; format: cell-based; details: 20 μmol/L, 24 h, compared with the control group

Chain of hERG potassium channels (Q12809 whole entry): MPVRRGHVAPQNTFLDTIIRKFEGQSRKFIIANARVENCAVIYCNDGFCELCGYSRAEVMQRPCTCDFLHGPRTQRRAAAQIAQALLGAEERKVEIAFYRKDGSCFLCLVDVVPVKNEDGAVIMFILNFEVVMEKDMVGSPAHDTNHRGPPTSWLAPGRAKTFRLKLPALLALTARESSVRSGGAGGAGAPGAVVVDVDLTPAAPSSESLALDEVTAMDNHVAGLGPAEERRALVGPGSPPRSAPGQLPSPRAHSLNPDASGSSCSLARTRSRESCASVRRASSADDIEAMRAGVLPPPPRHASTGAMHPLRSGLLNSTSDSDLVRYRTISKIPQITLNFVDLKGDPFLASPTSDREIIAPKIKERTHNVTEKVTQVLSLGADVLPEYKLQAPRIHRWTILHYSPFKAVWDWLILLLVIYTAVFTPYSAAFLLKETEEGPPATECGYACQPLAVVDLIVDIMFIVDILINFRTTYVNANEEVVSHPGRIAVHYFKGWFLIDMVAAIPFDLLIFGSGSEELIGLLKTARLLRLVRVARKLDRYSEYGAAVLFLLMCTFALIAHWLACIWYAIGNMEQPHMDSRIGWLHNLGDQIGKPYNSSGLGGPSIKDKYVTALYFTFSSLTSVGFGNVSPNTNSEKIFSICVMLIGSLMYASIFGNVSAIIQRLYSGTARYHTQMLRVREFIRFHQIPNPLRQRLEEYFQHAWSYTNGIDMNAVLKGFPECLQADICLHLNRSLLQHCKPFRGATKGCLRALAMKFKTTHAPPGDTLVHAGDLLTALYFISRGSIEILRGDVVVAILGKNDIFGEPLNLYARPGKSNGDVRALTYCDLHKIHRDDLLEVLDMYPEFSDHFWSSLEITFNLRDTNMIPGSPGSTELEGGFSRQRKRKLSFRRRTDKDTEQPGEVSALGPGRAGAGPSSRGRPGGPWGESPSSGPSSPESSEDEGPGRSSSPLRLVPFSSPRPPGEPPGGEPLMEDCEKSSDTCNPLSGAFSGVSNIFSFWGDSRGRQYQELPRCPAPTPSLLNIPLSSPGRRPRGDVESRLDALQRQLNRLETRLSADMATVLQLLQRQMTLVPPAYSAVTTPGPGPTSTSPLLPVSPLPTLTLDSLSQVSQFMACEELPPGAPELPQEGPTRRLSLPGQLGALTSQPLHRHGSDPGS

Structure (SMILES)	Papp at 10 h, 100 μg/mL [8] [×10⁻⁶ cm/s]	Prediction of BBB penetration [7]	Inhibition ratio of p70S6K phosphorylation at 20 μmol/L (%) [10]	also measured
CC(=O)Oc1cccc(C(=O)Nc2ncc(N3CCOCC3)s2)c1 [Compound 22, 3-Acetyloxy-N-(5-morpholinothiazol-2-yl)benzamide]	6.02 ± 0.27	CNS+ (Compounds with permeabilities Pe > 3.08 × 10^−6 cm/s could cross the BBB by passive diffusion (CNS+))	88.95% and 88.95±0.78%	Phosphorylation of AKT, mTOR, p70S6K (Western blot) [1]: dose-dependently suppressed the phosphorylation of AKT, mTOR, p70S6K; ULK1 phosphorylation at Ser 757 (Western blot) [1]: decreased ULK1 phosphorylation at Ser 757; Aβ1−40 and Aβ1−42 content in the cell (ELISA) [2]: dose-dependently decreased both Aβ1−40 and Aβ1−42 content; Cytotoxicity on BV2 cells [3]: no cytotoxicity; Cell viability of BV2 cells at high concentration [3]: decreased; Cytotoxicity on SH-SY5Y cells [4]: low cytotoxicity; Escape latencies in MWM assay ([5]; 10 mg/kg orally): significantly reduced the escape latencies; Crossing times in MWM probe trial ([5]; 30 mg/kg orally): significantly increased the crossing times; Escape latencies in MWM assay ([5]; 30 mg/kg orally): significantly reduced the escape latencies; Tau phosphorylation at Ser199, 396 and Tyr231 (Western blot) [6]: dose-dependently inhibited tau phosphorylation; IC50 [9]: > 40 µM; Nesting test [11]: obvious improvement in nesting test; Aβ40/42 level in cerebral cortex and hippocampus (ELISA) [12]: significantly reduced Aβ40/42 level; Protein levels of Beclin 1, LC3 II and p62 (Western blot) [13]: upregulate the protein levels of Beclin 1 and LC3 II, and decrease the p62 protein level; p70S6K phosphorylation level in the cortex (Western blot) ([14]; 10 mg/kg): significantly reduce the p70S6K phosphorylation level; p70S6K phosphorylation level in the cortex (Western blot) ([14]; 30 mg/kg): significantly reduce the p70S6K phosphorylation level; Numbers of yellow and red mTagRFP-mWasabi-LC3 puncta [15]: increased the numbers of both yellow and red puncta
CC(=O)Oc1ccccc1C(=O)Nc1ncc(N2CCOCC2)s1 [Compound 12, 2-Acetyloxy-N-(5-morpholinothiazol-2-yl)benzamide]	5.76 ± 0.57	CNS+ (Compounds with permeabilities Pe > 3.08 × 10^−6 cm/s could cross the BBB by passive diffusion (CNS+))	85.20% and 85.20±1.76%	Concentration at which viability of BV2 cells began to decrease [3]: 20 µM; Concentration at which viability of SH-SY5Y cells decreased [4]: 5 µM
O=C(CCc1ccccc1)Nc1ncc(N2CCOCC2)s1 [Compound 52, N-(5-Morpholinothiazol-2-yl)-3-phenylpropanamide]	10.5 ± 1.13	CNS+ (Compounds with permeabilities Pe > 3.08 × 10^−6 cm/s could cross the BBB by passive diffusion (CNS+))	81.60±1.86%	
CC(=O)Oc1ccccc1C(=O)Nc1ncc([N+](=O)[O-])s1 [NTZ, nitazoxanide, reference compound]	1.26 ± 0.21			Escape latencies in MWM assay ([5]; 30 mg/kg orally): significantly shortened the escape latencies; Nesting test [11]: obvious improvement in nesting test
O=C(Nc1ncc(N2CCOCC2)s1)c1ccc2ccccc2c1 [Compound 31, N-(5-Morpholinothiazol-2-yl)-2-naphthamide]	3.42 ± 0.07	CNS+ (Compounds with permeabilities Pe > 3.08 × 10^−6 cm/s could cross the BBB by passive diffusion (CNS+))	80.96±1.60%	

Second part, led by results:

Papp at 10 h, 100 μg/mL [8] [×10⁻⁶ cm/s]	Structure (SMILES)	Prediction of BBB penetration [7]	Inhibition ratio of p70S6K phosphorylation at 20 μmol/L (%) [10]	also measured
10.62 ± 0.1	O=C(Nc1ncc(N2CCOCC2)s1)c1ccc(Cl)s1 [Compound 36, 5-Chloro-N-(5-morpholinothiazol-2-yl)thiophene-2-carboxamide]	CNS+ (Compounds with permeabilities Pe > 3.08 × 10^−6 cm/s could cross the BBB by passive diffusion (CNS+))	83.32±0.41%	Phosphorylation of AKT, mTOR, p70S6K (Western blot) [1]: effectively inhibit the phosphorylation of AKT, mTOR, and p70S6K; ULK1 phosphorylation at Ser 757 (Western blot) [1]: no effect on the ULK1 phosphorylation; Cytotoxicity on BV2 cells [3]: no cytotoxicity; Cell viability of BV2 cells at high concentration [3]: decreased; Cytotoxicity on SH-SY5Y cells [4]: low cytotoxicity; Protein levels of Beclin 1, LC3 II and p62 (Western blot) [13]: upregulate the protein levels of Beclin 1 and LC3 II, and decrease the p62 protein level; Numbers of yellow and red mTagRFP-mWasabi-LC3 puncta [15]: increased the numbers of both yellow and red puncta
6.82 ± 0.5	O=C(Nc1ncc(N2CCOCC2)s1)c1ccoc1 [Compound 34, N-(5-Morpholinothiazol-2-yl)furan-3-carboxamide]	CNS+ (Compounds with permeabilities Pe > 3.08 × 10^−6 cm/s could cross the BBB by passive diffusion (CNS+))	80.23±0.88%	
10.4 ± 1.25	O=C(Nc1ncc(N2CCOCC2)s1)c1cccs1 [Compound 33, N-(5-Morpholinothiazol-2-yl)thiophene-2-carboxamide]	CNS+ (Compounds with permeabilities Pe > 3.08 × 10^−6 cm/s could cross the BBB by passive diffusion (CNS+))	79.80±5.03%	
0.09 ± 0.01	O=C(Nc1ncc(N2CCOCC2)s1)c1ccc(O)cc1 [Compound 21, 4-Hydroxy-N-(5-morpholinothiazol-2-yl)benzamide]	CNS− (Compounds with Pe < 1.13 × 10^−6 cm/s show low BBB permeation (CNS−))	79.20±1.87%	
0.45 ± 0.03	O=C(Nc1ncc(N2CCOCC2)s1)c1cccc(O)c1 [Compound 20, 3-Hydroxy-N-(5-morpholinothiazol-2-yl)benzamide]	CNS− (Compounds with Pe < 1.13 × 10^−6 cm/s show low BBB permeation (CNS−))	83.86±1.54%	

Reference: paper PMC7161708 (Acta Pharmaceutica Sinica. B, 2019)
